# Test results published in US8048925B2, “Bis(thio-hydrazide amide) salts for treatment of cancers” (Synta Pharmaceuticals Corp., priority 2004, dated 2011).
# Read-outs that look alike come from different tables or passages of the source.
# Tests used:
# [1] = Solubility in water, saturated suspension filtered and measured by HPLC; type: physicochemical; details: for water solubility compared with the corresponding neutral or monosalt compounds: result in words; for solubility: thermodynamic from solid
# Experimental: A compound was weighed and water was added to the compound such that the resulting concentration of the compound was about 100 mg/mL. The mixture was then shaken well and sonicated (about 5-10 min at about 50° C.). If the added amounts of the compound were totally solubilized, more amounts of the compound were added to the solution and the mixture was shaken well and sonicated until a suspension was achieved. The suspension was then filtered through a 0.2 μm filter. The filtered solution was diluted with DMSO. Then the mixture was analyzed by HPLC to determine the concentration of the compound.
# The HPLC system consisted of the HP 1100 Model (Agilent, Wilmington, Del.) equipped with a model 1100 quaternary pump, a model 1100 autosampler, a model 1100 Diode-Array Detector for UV detection at 280 nm. HPLC analysis was performed using a gradient mobile phase consisting of acetonitrile-water containing 0.1% formic acid. Mobile phases were degassed and filtered through a solvent filtration apparatus and pumped at a constant rate of 1.0 mL/min. Separation was made on an XTerra MS C18 analytical column, 4.6 mm i.d.×150 mm, (Waters Corp., Milford, Mass., USA) fitted with a pre-column filter (XTerra MS C18, 3.9 mm×20 mm). The column was maintained at 40° C.
# [2] = Pharmacokinetics study in dog, bioavailability AUCpo/AUCiv; type: in vivo
# Experimental: Male beagle dogs were acclimated for at least one week prior to use, were fed laboratory chow and water ad libitum, and were housed in temperature and humidity controlled rooms. Compounds were prepared as a solution for intravenous injection or a capsule for oral administration. Three dogs were used for the study. Compounds were injected intravenously via cephalic vein or by oral gavage. The dose was adjusted based on the animal's body weight. Blood samples were collected at intervals of 5, 10 and 30 min and 1, 2, 4, 6, 8 and 24 hr (example) after administration of the compound and plasma samples were prepared after centrifugation (5000 rpm, 8 min) of whole blood samples. Compound in plasma was measured by a liquid chromatography with tandem mass spectrophotometer (LC/MS/MS) after 50 μl of these samples were extracted by protein precipitation with acetonitrile. The compound concentration was determined by the standard curve (concentration vs. peak area) made with the same extraction procedure of controlled plasma. The area under curve (AUC) was calculated using the modified trapezoidal method. The portion of AUC from the last measurable plasma concentration to infinity was estimated by C/k, where k was expressed by the least square regression of the log-linear concentration time points and C represents the last measurable plasma concentration. Bioavailability was calculated by AUCpo/AUCiv.
# Compounds (1) and (3) and its internal standard were extracted from heparinized plasma by protein precipitation with acetonitrile. Chromatography was achieved on an XTerra column (Waters, particle size: 5 μm; 100 mm×3.0 mm i.d.) using a mixture of acetonitrile, water and formic acid. Analysis was performed on a Sciex API 365 tandem mass spectrometer with turbo ion spray interface. Negative ions were measured using the multiple-reaction-monitoring (MRM) mode with m/z 399.0→165.1. The run time was 9 min per sample, and Compounds (1) and (3) were quantitated by a peak area ratio using 1/×^2-weighted least-square linear regression plot.
# [3] = water, shaken and sonicated about 5-10 min at about 50° C., filtered 0.2 μm, HPLC, read-out: Solubility in water
# [4] = water, shaken and sonicated about 5-10 min at about 50° C., filtered 0.2 μm, HPLC
water solubility compared with the corresponding neutral or monosalt compounds [1],Compound,"solubility [1, 3] [mg/mL]",also measured
significantly greater water solubility,"CN(/N=C(\[O-])C/C([O-])=N/N(C)C(=S)C1(C)CC1)C(=S)C1(C)CC1.[Na+].[Na+] [Compound 12, Disodium; 2-(N′-methyl-N′-thio-1-methylcyclopropyl-hydrazinocarbonyl)-1-(methyl-thio-1-methylcyclopropyl-hydrazono)-ethanolate]",> 1000,
,Cholin; 2-(N′-methyl-N′-thiobenzoyl-hydrazinocarbonyl)-1-(methyl-thiobenzoyl-hydrazono)-ethanolate [Compound 11],,"Solubility in water [1, 4]: 264.0 (>200) mg/mL"
significantly greater water solubility,"CN(/N=C(\[O-])C/C([O-])=N/N(C)C(=S)C1CC1)C(=S)C1CC1.[Na+].[Na+] [Compound 13, Disodium; 2-(N′-methyl-N′-thiocyclopropyl-hydrazinocarbonyl)-1-(methyl-thiocyclopropyl-hydrazono)-ethanolate]",> 1000,
,"CN(/N=C(\[O-])CC(=O)NN(C)C(=S)c1ccccc1)C(=S)c1ccccc1.[Li+] [Compound 4, Lithium; 2-(N′-methyl-N′-thiobenzoyl-hydrazinocarbonyl)-1-(methyl-thiobenzoyl-hydrazono)-ethanolate]",53.5,
,"CN(/N=C(\[O-])CC(=O)NN(C)C(=S)c1ccccc1)C(=S)c1ccccc1.[Na+] [Compound 3, Sodium; 2-(N′-methyl-N′-thiobenzoyl-hydrazinocarbonyl)-1-(methyl-thiobenzoyl-hydrazono)-ethanolate]",52.8,"bioavailability ([2]; dog, plasma, male beagle dogs, capsule oral vs intravenous solution, AUCpo/AUCiv, read-out: Bioavailability): 35%"
,"CN(NC(=O)CC(=O)NN(C)C(=S)c1ccccc1)C(=S)c1ccccc1 [Neutral Form of Compound 1, N-Malonyl-bis(N′-thiobenzoyl-N′-methyl hydrazide)]",,"bioavailability ([2]; male beagle dogs, capsule oral vs intravenous solution, AUCpo/AUCiv): 4.8%; bioavailability ([2]; see Example 16 (dog)): 4.8%; water solubility ([1]; water, listed as neutral form of Compounds (1) and (2)): about 0.1 mg/ml; Solubility in water [1, 4]: <0.1 mg/mL"
significantly greater water solubility,"CN(/N=C(\[O-])C/C([O-])=N/N(C)C(=S)C1(C)CC1)C(=S)C1(C)CC1.[K+].[K+] [Compound 14, Dipotassium; 2-(N′-methyl-N′-thio-1-methylcyclopropyl-hydrazinocarbonyl)-1-(methyl-thio-1-methylcyclopropyl-hydrazono)-ethano late]",> 1000,
,"CN(/N=C(\[O-])C/C([O-])=N/N(C)C(=S)c1ccccc1)C(=S)c1ccccc1.[Mg+2] [Compound 8, Magnesium; 2-(N′-methyl-N′-thiobenzoyl-hydrazinocarbonyl)-1-(methyl-thiobenzoyl-hydrazono)-ethanolate]",43.5,
,"CN(/N=C(\[O-])CC(=O)NN(C)C(=S)c1ccccc1)C(=S)c1ccccc1.[K+] [Compound 10, Monopotassium; 2-(N′-methyl-N′-thiobenzoyl-hydrazinocarbonyl)-1-(methyl-thiobenzoyl-hydrazono)-ethanolate]",41.2,

Compound,water solubility compared with the corresponding neutral or monosalt compounds [1],"solubility [1, 3] [mg/mL]",also measured
"CN(NC(=O)CC(=O)NN(C)C(=S)c1ccccc1)C(=S)c1ccccc1 [Compound 1, Disodium; 2-(N′-methyl-N′-thiobenzoyl-hydrazinocarbonyl)-1-(methyl-thiobenzoyl-hydrazono)-ethanolate]",significantly greater water solubility,,"bioavailability ([2]; male, beagle, plasma, oral, see Example 16 (dog), read-out: bioavailability): 80%; solubility ([1]; 50 °C, water, read-out: water solubility): > 1000 mg/mL; Solubility in water [1, 4]: >1000 mg/mL"
"CN(/N=C(\[O-])C/C([O-])=N/N(C)C(=S)c1ccccc1)C(=S)c1ccccc1.[Li+].[Li+] [Compound 5, Dilithium; 2-(N′-methyl-N′-thiobenzoyl-hydrazinocarbonyl)-1-(methyl-thiobenzoyl-hydrazono)-ethanolate]",significantly greater water solubility,626,
